Measurements: PubChem BioAssay AID588607 (Sanford-Burnham Center for Chemical Genomics, 2011)
The source made the active and inactive calls.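 The calls were made as follows: active = mean EC50 below 100 µM; inactive = the rest.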

target: placental alkaline phosphatase (human); assay: effect of analogs on PLAP activity, SAR follow-up, selectivity assay for mouse IAP activator project, biochemical, human PLAP, set 2 (AID 588607); details: purified PLAP, CDP-Star luminescence, 30 min

SMILES | EC50 | IC50 (inhibition of PLAP activity)
CN(C)S(=O)(=O)c1ccc(NC(=S)NCCN2CCCC2)cc1 | > 100 µM (inactive) | –
CC1CCN(S(=O)(=O)c2ccc(NC(=S)NCCC(c3ccccc3)c3ccccc3)cc2)CC1 | – | 31.9 µM
CN(C)S(=O)(=O)c1cccc(NC(=S)NCCc2cccc(O)c2)c1 | > 100 µM (inactive) | –
CN(CCc1ccccc1)C(=S)Nc1cccc(S(=O)(=O)N(C)C)c1 | > 100 µM (inactive) | –
O=S(=O)(c1ccc(NC(=S)NCC(c2ccccc2)c2ccccc2)cc1)N1CCCC1 | – | 19.5 µM
CCN(CC)CCCNC(=S)Nc1cccc(S(=O)(=O)N(C)C)c1 | > 100 µM (inactive) | –
CN(C)S(=O)(=O)c1cccc(NC(=S)NCCN2CCCC2)c1 | > 100 µM (inactive) | –
O=S(=O)(c1ccc(NC(=S)NCc2cccc(F)c2)cc1)N1CCCCC1 | – | 78.1 µM
Cc1ccc(S(=O)(=O)N(C)C)cc1NC(=S)NCCCn1ccnc1 | > 100 µM (inactive) | –
CN(C)S(=O)(=O)c1ccc(NC(=S)NCCc2cccc(O)c2)cc1 | > 100 µM (inactive) | –
COc1ccc(CNC(=S)Nc2ccc(S(=O)(=O)N3CCCCC3)cc2)cc1OC | – | 68.6 µM
CCCCCCC(C)NC(=S)Nc1cc(S(=O)(=O)N(C)C)ccc1C (stereo unspecified) | > 100 µM (inactive) | –
CN(C)S(=O)(=O)c1ccc(NC(=S)NCCC(c2ccccc2)c2ccccc2)cc1 | – | 35 µM
O=S(=O)(c1ccc(NC(=S)NCCC(c2ccccc2)c2ccccc2)cc1)N1CCCC1 | – | 42 µM
Cc1ccc(S(=O)(=O)N(C)C)cc1NC(=S)NC(C)CCCC(C)C (stereo unspecified) | – | 66.1 µM
CN(C)S(=O)(=O)c1ccc(NC(=S)NC(c2ccccc2)c2ccccc2)cc1 | – | 29 µM
Cc1ccc(C)c(NC(=S)Nc2ccc(S(=O)(=O)N3CCCCC3)cc2)c1 | > 100 µM (inactive) | –
CN(C)S(=O)(=O)c1cccc(NC(=S)NCCc2ccc(Br)cc2)c1 | – | 92 µM
COc1ccccc1CNC(=S)Nc1ccc(S(=O)(=O)N(C)C)cc1 | – | 69.6 µM
CN(C)S(=O)(=O)c1ccc(NC(=S)NCCc2cccc(Br)c2)cc1 | – | 57 µM
CN(C)CC(C)(C)CNC(=S)Nc1cccc(S(=O)(=O)N(C)C)c1 | > 100 µM (inactive) | –
COc1ccc(CCNC(=S)Nc2ccc(S(=O)(=O)N3CCCCC3)cc2)cc1 | – | 70.8 µM
CN(C)S(=O)(=O)c1ccc(NC(=S)NCc2ccc(Cl)cc2)cc1 | > 100 µM (inactive) | –

SMILES | EC50 | IC50 (inhibition of PLAP activity)
O=S(=O)(c1ccc(NC(=S)NCc2cccc(Cl)c2)cc1)N1CCCCC1 | – | 84.9 µM
CN(C)S(=O)(=O)c1cccc(NC(=S)NCCc2ccc(F)cc2)c1 | > 100 µM (inactive) | –
CC(CNC(=S)Nc1cccc(S(=O)(=O)N(C)C)c1)N1CCN(c2ccccc2)CC1 (stereo unspecified) | > 100 µM (inactive) | –
CC1CCN(S(=O)(=O)c2ccc(NC(=S)NC(c3ccccc3)c3ccccc3)cc2)CC1 | – | 47.2 µM
CCN(CC)S(=O)(=O)c1ccc(NC(=S)NC(c2ccccc2)c2ccccc2)cc1 | – | 26.3 µM
O=S(=O)(c1ccc(NC(=S)NC(c2ccccc2)c2ccccc2)cc1)N1CCCC1 | – | 22.1 µM
CN(C)S(=O)(=O)c1cccc(NC(=S)NCCCn2ccnc2)c1 | > 100 µM (inactive) | –
Cc1ccc(CNC(=S)Nc2ccc(S(=O)(=O)N(C)C)cc2)cc1 | – | 78.6 µM
CN(C)S(=O)(=O)c1cccc(NC(=S)NCc2ccc(Cl)cc2)c1 | > 100 µM (inactive) | –
O=S(=O)(c1ccc(NC(=S)NCCC(c2ccccc2)c2ccccc2)cc1)N1CCCCC1 | – | 38.6 µM
CN(C)S(=O)(=O)c1cccc(NC(=S)NC(c2ccccc2)c2ccccc2)c1 | – | 31.2 µM
CN(C)S(=O)(=O)c1cccc(NC(=S)NCCC(c2ccccc2)c2ccccc2)c1 | – | 93 µM
CN(CCc1ccccn1)C(=S)Nc1cccc(S(=O)(=O)N(C)C)c1 | > 100 µM (inactive) | –
CCOc1cc(CCNC(=S)Nc2ccc(S(=O)(=O)N(C)C)cc2)ccc1OC | – | 89.9 µM
COc1ccc(CCNC(=S)Nc2ccc(S(=O)(=O)N3CCCCC3)cc2)cc1OC | – | 81.9 µM
CN(C)S(=O)(=O)c1cccc(NC(=S)NCCc2ccccc2)c1 | – | 86.6 µM
CN(C)S(=O)(=O)c1cccc(NC(=S)NC(C)(C)CC(C)(C)C)c1 | – | 85.7 µM
CCN(CC)S(=O)(=O)c1ccc(NC(=S)NCCC(c2ccccc2)c2ccccc2)cc1 | – | 52.5 µM
Cc1ccc(S(=O)(=O)N(C)C)cc1NC(=S)NC(C)CCC(C)C (stereo unspecified) | – | 78.5 µM
CC1CC(NC(=S)Nc2cccc(S(=O)(=O)N(C)C)c2)CC(C)N1 (stereo unspecified) | > 100 µM (inactive) | –
Cc1ccc(S(=O)(=O)N(C)C)cc1NC(=S)NC(=O)C12CC3CC(CC(C3)C1)C2 | > 100 µM (inactive) | –
CN(C)S(=O)(=O)c1ccc(NC(=S)NCCc2ccccc2)cc1 | > 100 µM (inactive) | –
CN(C)S(=O)(=O)c1cccc(NC(=S)NCC(c2ccccc2)c2ccccc2)c1 | – | 35.9 µM

Next, values leading:

EC50 | IC50 (inhibition of PLAP activity) | SMILES
– | 73 µM | CN(C)S(=O)(=O)c1cccc(NC(=S)NCCc2cccc(Br)c2)c1
> 100 µM (inactive) | – | O=C(CCc1ccccc1)NC(=S)Nc1cccc(S(=O)(=O)N2CCCC2)c1
> 100 µM (inactive) | – | CN(C)S(=O)(=O)c1cccc(NC(=S)NCCCN2CCCC2=O)c1
> 100 µM (inactive) | – | CCN(CC)c1ccc(C(=O)NC(=S)Nc2cc(S(=O)(=O)N3CCOCC3)ccc2-n2cncn2)cc1
– | 40.8 µM | CN(C)S(=O)(=O)c1ccc(NC(=S)NCC(c2ccccc2)c2ccccc2)cc1
> 100 µM (inactive) | – | CN(C)S(=O)(=O)c1cccc(NC(=S)NCCc2cccc(F)c2)c1
– | 29.6 µM | O=S(=O)(c1ccc(NC(=S)NCC(c2ccccc2)c2ccccc2)cc1)N1CCCCC1
> 100 µM (inactive) | – | Cc1ccc(S(=O)(=O)N(C)C)cc1NC(=S)NC1CCN(Cc2ccccc2)CC1
> 100 µM (inactive) | – | CN(C)S(=O)(=O)c1cccc(NC(=S)NCCC(=O)N2CCCC2)c1
– | 71.8 µM | Cc1ccccc1CNC(=S)Nc1ccc(S(=O)(=O)N(C)C)cc1
– | 30.1 µM | CCN(CC)S(=O)(=O)c1ccc(NC(=S)NCC(c2ccccc2)c2ccccc2)cc1
– | 78.6 µM | COc1cccc(CCNC(=S)Nc2cccc(S(=O)(=O)N(C)C)c2)c1
> 100 µM (inactive) | – | O=c1c2ccccc2[nH]c(=S)n1-c1cccc(S(=O)(=O)N2CCCC2)c1
– | 16.6 µM | O=S(=O)(c1ccc(NC(=S)NC(c2ccccc2)c2ccccc2)cc1)N1CCCCC1
– | 43.6 µM | O=C(NC(=S)Nc1cc(S(=O)(=O)N2CCOCC2)ccc1O)c1ccco1
> 100 µM (inactive) | – | O=C(NC(=S)Nc1cc(S(=O)(=O)N2CCOCC2)ccc1N1CCOCC1)c1ccco1
– | 91 µM | COc1cccc(CNC(=S)Nc2ccc(S(=O)(=O)N(C)C)cc2)c1
> 100 µM (inactive) | – | CN(C)CCCNC(=S)Nc1cccc(S(=O)(=O)N(C)C)c1
– | 69.2 µM | CC(CCc1ccccc1)NC(=S)Nc1cccc(S(=O)(=O)N(C)C)c1 (stereo unspecified)
– | 82.8 µM | Cc1ccc(CNC(=S)Nc2cccc(S(=O)(=O)N(C)C)c2)cc1
